In data set [1] the test system is subcutaneous xenograft tumor model of MIA PaCa-2. Briefly: In vivo pharmacodynamic experiment, tumor growth inhibition (Test Example 5). Further details: species or system BALB/c nude mice. To be noted: p.o., QD; for TGI: day 14. On the procedure: Experimental objective: to evaluate the in vivo pharmaceutical effects of tested compounds on the subcutaneous xenograft tumor model of MIA PaCa-2.
Experimental operation: 6 to 8 weeks old female BALB/c nude mice each having the body weight of 18-20 g were chosen. MIA PaCa-2 cells were cultured in DMEM containing 10% FBS, 2.5% HS and 1% penicillin-streptomycin at 37° C. in an incubator with 5% CO2. Cells were collected. The MIA PaCa-2 cells were subcutaneously inoculated to the animals at their backs on the right, 2.0×10^6 cells (0.1 mL) for each animal. When tumor grew to 190-311 mm^3, mice with tumor having a suitable size were chosen and treated in groups, with administration dosages shown in Table 5 below. The animals were weighed on an electronic balance each day. The tumor volume was investigated by using a vernier caliper twice a week. The tumor volume was calculated by the following equation: V=0.5 a×b^2, a and b representing the long diameter and the short diameter of the tumor, respectively. The tumor volume was used to calculate a tumor growth inhibition rate (TGI), and the TGI shown in the form of a percentage was used to indicate the antineoplastic activity of a compound. The TGI was calculated by the following equation: TGI (%)=[1−avTi−0/avCi−0)]×100, with avTi−0 representing the average tumor volume of the group administrated with the compound on a specific day minus the average tumor volume of this group on the day of grouping, and avCi−0 representing the average tumor volume of the solvent control group on a specific day minus the average tumor volume of the solvent control group on the day of grouping. The tumor volume was shown in the form of an average value±standard error of mean (SEM).

In data set [2] the test system is phosphorylated ERK in MIA PaCa2 cells with Kras G12C mutation. The data set is described as follows: p-ERK HTRF assay for cells (Test Example 2). Type of data set: cell-based, human. In outline: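 MIA PaCa2 cells (2.5E4/well, seeded overnight) treated 2 h with compound in a 3.16-fold series at 0.1% DMSO. Cells lysed 30 min; p-ERK read by HTRF after 4 h antibody incubation. Inhibition relative to DMSO and blank; IC50 by four-parameter fit.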

Data set [3] in a line: Pharmacokinetic evaluation on mice, intravenous administration (Test Example 6). It is filed as in vivo. To be noted: mouse, plasma, male CD-1 mice, IV 2 mg/kg; for clearance: read-out: Cl (clearance rate) (converted); for half-life: read-out: T1/2 (half-life) (converted); for Vd: read-out: Vd (volume of distribution). On the procedure: (§1) Experimental objective: male CD-1 mice were chosen as tested animals, and the LC-MS-MS method was employed to measure the concentrations of a tested compound in blood plasma of a mouse intravenously and intragastrically administrated with the tested compound at different times. The pharmacokinetic behaviors of tested compounds in mice were studied, and the pharmacokinetic characteristics thereof were evaluated.
(§2) Experimental scheme: experimental animals: 18 healthy adult male CD-1 mice (6 to 8 weeks old, and body weight about 30 g) were divided into 6 groups according to the principle of similar body weights: 3 mice in each of IV groups (3 groups), and 3 mice in each of PO groups (3 groups). The animals were purchased from Shanghai Jihui Laboratory Animal Care Co., Ltd.
(§3) Formulation: IV group: taking 10 mL of sample solution for example, 4 mg of sample was weighed, orderly added with 0.5 mL of DMSO and […], then added with […] of HP-p-CD, finally added with water to a constant volume of 10 mL, and stirred and subjected to ultrasonic irradiation, thereby obtaining a 0.4 mg/mL clear solution. PO group: an appropriate amount of sample was weighed, orderly added with appropriate amounts of Labrasol and water in a volume ratio of 10:40, and stirred and subjected to ultrasonic irradiation, thereby obtaining a 1.5 mg/mL uniform solution.
(§4) Administration: after being deprived of food for one night, the IV groups were intravenously administrated with the formulated solutions, respectively, with an injection volume of 5 mL/kg and a dosage of 2 mg/kg. The PO groups were intragastrically administrated with the formulated solutions, respectively, with an injection volume of […] and a dosage of 15 mg/kg.
(§5) Experimental operations: after the intravenous injection groups and the intragastric administration groups of the male CD-1 mice were administrated with the tested compounds, 110 ul of blood was sampled at the following time points: 0.0833, 0.25, 0.5, 1, 2, 4, 6, 8, and 24 hours. The sampled blood was placed into an anticoagulant tube which was added with K2EDTA in advance and preserved in dry ice. The tube was centrifuged for 15 minutes to separate blood plasma, and the separated blood plasma was preserved at −70° C. The animals were allowed to be fed after 4 hours of administration. The LC-MS-MS method was employed to measure the concentration of the tested compounds in the blood plasma after the intravenous and intragastric administration to the mice. The linear range of the method was 1-3000 ng/ml. The blood plasma samples were analyzed after protein precipitation with ACN.

A short description of data set [4]: Pharmacokinetic evaluation on mice, intragastric (PO) administration (Test Example 6). The settings on record: mouse, plasma, PO 15 mg/kg, male CD-1 mice; for bioavailability: read-out: F (bioavailability); for Cmax: read-out: Cmax; for Tmax: read-out: Tmax. It is filed as in vivo. On the procedure:
as §1, §2, §3, §4, §5

The mark [5] stands for this setting: Homo sapiens, MIA PaCa-2, 2 h, MIA PaCa2 cells, 2 hours with compound, read-out: p-ERK IC50.
[6] abbreviates: MIA PaCa2 cells, 2 hours with compound, read-out: p-ERK IC50.

Like-named read-outs stand apart in the source and are kept apart here.

In the case of `C=CC(=O)N1CCN2c3c(c(=O)n(-c4c(C(C)C)ncnc4C(C)C)c4c(F)c(-c5c(O)cccc5F)c(Cl)cc34)NC(=O)[C@H]2C1` (single isomer, unassigned) [Compound Z37-1], the “Tumor Volume on Day 14 after Administration” value (“Tumor Volume” below) in data set [1] (1 mg/kg) was determined as 286.12 mm^3; in data set [1] (3 mg/kg), 238.82 mm^3; in data set [1] (10 mg/kg), 210.59 mm^3. Further, the TGI worked out at 89.4% in data set [1] (1 mg/kg), 102.8% in data set [1] (3 mg/kg) and 108.4% in data set [1] (10 mg/kg). The IC50 in data set [2] (setting [5]) was determined as 11 nM.

On to `C=CC(=O)N1C[C@@H]2C(=O)N(C)c3c(c4cc(Cl)c(-c5c(O)cccc5F)nc4n(-c4c(C)ccnc4C(C)C)c3=O)N2C[C@H]1C` (single isomer, unassigned) [Compound Z27-2], for which, in data set [1] (1 mg/kg), the “Tumor Volume” value worked out at 140.10 mm^3 and the TGI turned out to be 126.3%. In addition, in data set [1] (3 mg/kg), the “Tumor Volume” value is reported as 54.81 mm^3 and the TGI was 145.1%. Moreover, in data set [1] (10 mg/kg), the “Tumor Volume” value is reported as 15.16 mm^3 and the TGI came out at 155.8%. In addition, in data set [3], the clearance was 9.83 mL/min/kg, the half-life was 1.08 h and the Vd came out at 0.777 L/kg. Besides, in data set [2] (setting [6]), the IC50 amounted to 11 nM. Besides, in data set [4], the bioavailability is 96.8%, the Cmax worked out at 3660 ng/mL and the Tmax amounted to 1.74 h.

As to `C=CC(=O)N1CCN2c3c(c(=O)n(-c4c(C)ccnc4C(C)C)c4nc(-c5c(O)cccc5F)c(F)cc34)N(C)C(=O)[C@H]2C1` (single isomer, unassigned) [Compound Z9-2], in data set [3], the clearance was 2.33 mL/min/kg, the half-life was 1.74 h and the Vd came out at 0.326 L/kg. Moreover, in data set [2] (setting [5]), the IC50 is 221 nM. Also, in data set [4], the bioavailability is 103%, the Cmax was found to be 13200 ng/mL and the Tmax was determined as 1 h.

On to `C=CC(=O)N1C[C@@H]2C(=O)N(C)c3c(c4cc(F)c(-c5c(O)cccc5F)nc4n(-c4c(C)ccnc4C(C)C)c3=O)N2C[C@H]1C` (single isomer, unassigned) [Compound Z10-2], for which, in data set [3], the clearance is 13.5 mL/min/kg, the half-life was 0.941 h and the Vd is 1.06 L/kg. For the same molecule, the IC50 in data set [2] (setting [6]) was 34 nM. In data set [4], the bioavailability amounted to 59.2%, the maximum concentration (Cmax) came out at 3960 ng/mL and the time to peak (Tmax) worked out at 1 h.

Take `C=CC(=O)N1CCN2c3c(c(=O)n(-c4c(C)ccnc4C(C)C)c4nc(-c5c(O)cccc5F)c(F)cc34)OC[C@H]2C1` [Compound Z1, (4aR)-3-acryloyl-11-fluoro-10-(2-fluoro-6-hydroxyphenyl)-8-(2-isopropyl-4-methylpyridin-3-yl)-1,2,3,4,4a,5-hexahydropyrazino[1′,2′:4,5][1,4]oxazino[2,3-c][1,8]naphthyridin-7(8H)-one]: in data set [2] (setting [5]), the IC50 turned out to be 432 nM. Moreover, in data set [4], the Cmax is 2600 ng/mL and the Tmax came to 0.25 h.

In the case of `C=CC(=O)N1CCN2c3c(c(=O)n(-c4c(C)ccnc4C(C)C)c4nc(-c5c(O)cccc5F)c(Cl)cc34)N(C)C(=O)[C@H]2C1` (single isomer, unassigned) [Compound Z25-2], in data set [1] (1 mg/kg), the “Tumor Volume” value was determined as 180.14 mm^3 and the TGI amounted to 116.2%. Besides, in data set [1] (3 mg/kg), the “Tumor Volume” value is on record as 62.35 mm^3 and the TGI is 143.7%. Further, in data set [1] (10 mg/kg), the “Tumor Volume” value amounted to 18.94 mm^3 and the TGI was 154.4%. Also, in data set [3], the clearance is 8.32 mL/min/kg, the half-life was 1 h and the Vd stood at 0.661 L/kg. The IC50 in data set [2] (Homo sapiens, MIA PaCa-2, 2 h, read-out: p-ERK IC50, MIA PaCa2 cells, 2 hours with compound) worked out at 29 nM. In data set [4], the bioavailability is 93.5%, the maximum concentration (Cmax) was 6640 ng/mL and the Tmax was determined as 1.93 h.

`[2H]C([2H])([2H])N1C(=O)[C@H]2CN(C(=O)C=C)CCN2c2c1c(=O)n(-c1c(C)ccnc1C(C)C)c1nc(-c3c(O)cccc3F)c(Cl)cc21` (single isomer, unassigned) [Compound Z26-2]: the “Tumor Volume” value in data set [1] (1 mg/kg) is 157.06 mm^3; in data set [1] (3 mg/kg), 67.66 mm^3; in data set [1] (10 mg/kg) it was 30.49 mm^3. In addition, the TGI in data set [1] (1 mg/kg) is given as 121.1%; in data set [1] (3 mg/kg), 143.8%; in data set [1] (10 mg/kg), 151.1%. Also, the half-maximal inhibitory concentration (IC50) in data set [2] (read-out: p-ERK IC50, MIA PaCa2 cells, 2 hours with compound) was found to be 62 nM.

Turning to `C=CC(=O)N1CCN2c3c(c(=O)n(-c4c(C(C)C)ncnc4C(C)C)c4nc(-c5c(O)cccc5F)c(Cl)cc34)N(C)C(=O)[C@H]2C1` [Compound Z48], in data set [1] (1 mg/kg), the “Tumor Volume” value is reported as 459.33 mm^3 and the TGI worked out at 51.2%. Further, in data set [1] (3 mg/kg), the “Tumor Volume” value came to 148.62 mm^3 and the TGI was 124.7%. Moreover, in data set [1] (10 mg/kg), the “Tumor Volume” value was 90.39 mm^3 and the TGI was 138.5%. For the same molecule, in data set [3], the clearance is 25.5 mL/min/kg, the half-life is 1.02 h and the Vd stood at 1.66 L/kg. Further, the IC50 in data set [2] (setting [5]) came out at 52 nM. Also, in data set [4], the bioavailability stood at 38.1%, the Cmax worked out at 1250 ng/mL and the Tmax is 0.5 h.

The values are drawn from patent US12054497B2, “Substituted heterocyclic fused cyclic compound, preparation method therefor and pharmaceutical use thereof” (GENFLEET THERAPEUTICS (SHANGHAI) INC., priority 2019, dated 2024).
